Results on 2 compounds are retold here after patent publication US12661503B2, “Microcurrent-based skin treatment and pretreatment techniques” (NSE Products, Inc., priority 2022, dated 2026).

“Also recorded” adds a separate entry of the source. Where two headings read alike, the source gives them in different places.

For data set [1], the system named is upper thigh skin of subjects. The data set can be described thus: Tape stripping assessment for allantoin recovery (LC-MS). The settings on record: early tape strips one to five; treated vs untreated upper thigh; week twelve. The format is in vivo. Here is the method:
Cellulite was further evaluated by measuring circumference of upper thigh during each visit. At the end of study completion at twelve weeks, twenty tape strips were removed from the treated upper thigh area of five subjects chosen […] and five control strips were obtained from an untreated site on the upper thigh.
In addition, the circumference of each subject's upper thigh was measured during each visit as an indicator for improvement in slimming and firmness (see M. H. Gold, K. A. Khatri, K. Hails, R. A. Weiss and N. Fournier, “Reduction in thigh circumference and improvement in appearance of cellulite,” J. of Cosmetic and Laser Therapy 13, February 2011, which is incorporated by reference herein, in the entirety and for all purposes). At the end of study, the twenty tape strips were collected from the treated upper thigh area, and from an untreated upper thigh area from five randomly chosen subjects. Five tape strips from both treated and untreated areas of upper thigh were evaluated for accumulation of allantoin using LC-MS spectroscopy.
FIGS. 20A and 20B are scatter plots illustrating a tape stripping assessment for allantoin recovery in the upper thigh. The results include representative, anonymous, arbitrarily-labeled samples (S2 and S4), as compared to corresponding controls. […]

The nature of data set [2]: Franz cell epidermal and dermal retention of tracking marker. The format is in vitro ADME, human or mammalian. On the procedure: (§1) FIG. 7A is a schematic diagram of a Franz cell (or cell system) 700 adapted for testing permeability of a skin sample 710.
(§2) The study was conducted in two phases or parts. Round 1a (Round 1: Phase 1a) evaluated the penetration of 1.0% allantoin (an active) in PBS with a galvanic electrical waveform (GEWF), charge-balanced, symmetric electrical waveform (CSW), and a Program Random Pulse Width Modulation electrical waveform ([…]), in a Franz cell model. Details of the testing process includes receptor well collection and processing (Table 2A), and the epidermal and dermal retention protocol to assess penetration of the tracking markers (Table 2B).
Receptor fluid collection was measured at time t=0 (before and immediately after the topical sample treatment), at the end of waveform cycle 1 (t=12 min), at the end of waveform cycle 3 (t=36 m); and at 1 hour (1 h), 6 h and 24 h intervals post-pretreatment with the electrical waveform and treatment with the selected topical agents.
Receptor fluid collection was performed at time t=0 (before and immediately after topical sample treatment), at the end of waveform cycle one (12 m), at the end of waveform cycle three (36 m), and at 1 h, 6 h and 24 h intervals post pre-treatment with the electrical waveform, and treatment with the topical agent.
(§3) The number of Franz cell replicates (Franz cells) per sample was n=3 for non-electrical pretreated samples, and n=6 for pulsed electrical pretreatment samples. The number of Franz cell replicates may also vary. The current flow (I) is given in microamperes (μA), and the pulse time (PT) in minutes (mi) where zeros indicate no electrical current, and no pulse time. In each case, the next include the sample being drawn off (draw off), and post pulse treatment/dosing with phosphate buffered saline (PBS) containing 1.0% allantoin. Assessment times were at post 0.5, 1.0, 6 and 24 hours (hr), assaying for allantoin.

Experiment in data set [3]: as above
The format is in vitro ADME, human or mammalian. The source holds these as a separate data set.

Data set [4] in a line: Franz cell tracking marker flux after electrical waveform pretreatment. In kind it is in vitro ADME, human or mammalian.
Text: as §1
FIG. 11A is a bar chart illustrating transdermal allantoin penetration, following selected current treatments. FIG. 11B is a bar chart illustrating allantoin retention in the epidermis and dermis, following the selected treatments. FIG. 11C is a bar chart illustrating allantoin flux, following the selected treatments. The Flus is in arbitrary units, for example μg/cm^2/hr, or other suitable, appropriate or convenient measure, as known in the art.
as §3

A short description of data set [5]: Franz cell transdermal penetration (receptor fluid) after electrical waveform pretreatment. In kind it is in vitro ADME, human or mammalian. The settings on record: for transdermal penetration of allantoin, six minute vs three minute pretreatment: CSW at 375, 250 and 125 μA (all current levels).
Text: as §1
An electrical voltage can be applied to or across the sample 720 via an electrode 740 in contact with the skin sample 730, and a conducting lead 750 disposed in a sampling port 760. Suitable materials for electrode 740 and lead 750 include platinum, silver, copper, and other conducting metals, in porous mesh, wafer, plate, or wire form. A heater 770 can be provided to maintain temperature of the Franz cell 710, sample 720 and donor compound 730, during operation of the system 700.
FIG. 7B is a schematic diagram of a Franz cell system 700 adapted for application of a microcurrent treatment to the skin sample 710. In this example, a galvanic unit or waveform generator 780 can be provided to apply a microcurrent waveform to the skin sample 720; e.g., via a negative polarity platinum wire 755 connected to a porous mesh or wafer electrode 740 on the skin surface, with opposite polarity (+) defined by a platinum lead wire or wire electrode 755. Different metals such as copper or silver can also be used, or other suitable conductors. The polarity can also be reversed, or the lead wire 750 can be used to define a ground potential for the Franz cell 710.
Round one testing was performed for three electrical waveforms with allantoin in PBS (phosphate buffered saline) or the NBS agent. The goal was to compare the three electrical waveforms for their capacity to deliver the one or more components in the NBS v1.18 agent. The delivery was tracked via allantoin measurement, used as a skin penetration tracking marker.
as §2
Samples and treatments included 1.0% allantoin in PBS, with no electrical stimulation. The skin sample was also pretreated with a GEWF (Galvanic Electrical waveform) in PBS for thirty-six minutes (36 m), followed by treatment with a PBS topical or agent containing 1.0% allantoin. Pretreatment was also applied with a charge-balanced, symmetric electrical waveform (CSW) in PBS for 36 m, followed by treatment with a PBS agent containing 1.0% allantoin, or treatment with a Program Random Pulse Width Modulation electrical waveform ([…]) in PBS for 36 m followed by application of a PBS agent with 1.0% allantoin.
The microcurrent dosage delivered ranged up to 375 microampere (μA) for a twelve minute cycle, repeated for three cycles. Receptor fluid collection was measured at time t=0 (before and immediately after the topical sample treatment), at the end of waveform cycle 1 (t=12 min), at the end of waveform cycle 3 (t=36 m); and at 1 hour (1 h), 6 h and 24 h intervals post-pretreatment with the electrical waveform and treatment with the selected topical agents.
Round 1b (Round 1: Phase 1b) testing included evaluation of the NBS v1.18 agent with the GEWF (galvanic electrical waveform), CSW (charge-balanced, symmetric electrical waveform) and […] (Program Random Pulse Width Modulation electrical waveform), in a Franz cell model as described herein. Samples and treatments included the NBS v1.18 agent containing 0.1% allantoin, with no electrical stimulation. […]

[6] abbreviates: Round Three, FIG. 15B, 1.0% allantoin in PBS.

As for `NC(=O)NC1NC(=O)NC1=O` (stereo not shown) [allantoin], in data set [1], the “allantoin recovered by tape stripping vs background (control) allantoin level” value is listed as “increased over the background skin allantoin level”. Moreover, in data set [2] (Round 1a, FIG. 9B, 1.0% allantoin in PBS, 24 h), the “allantoin retention in epidermis and dermis, GEWF vs CSW and PRPWMEWF” value is “slightly more retention”. For the same compound, in data set [2] (setting [6]), the “epidermal retention at pretreatment current of about 375 μA” value was “increased epidermal retention” and the “retention in the dermis at lower microcurrent levels (250 μA, 125 μA)” value is “higher retention in the dermis”. Also, in data set [2] (Round Three, FIG. 15B, all microcurrent levels), the “skin retention, six minute vs three minute pretreatment” value was “higher skin retention”. Further, in data set [3] (FIG. 11B, test #3 vs #4), the “increase in penetration of allantoin in both epidermis and dermis vs non-electrically stimulated sample with PBS” value was “Greater than fivefold increase”. Moreover, the “skin allantoin delivery in epidermis and dermis, electrically treated conductive gel vs non-stimulated” value in data set [3] (FIG. 11B, test #9 and #11 vs #10) was found to be 5. For the same compound, the “increase in penetration in both epidermis and dermis vs non-electrically stimulated sample with PBS” value in data set [3] (Round 2b (caffeine), FIG. 13B, test #1 vs #2) is reported as “greater than fivefold increase”. Also, in data set [3] (Round Four, FIG. 16B, NBS 0.1% allantoin, about 375 μA), the “epidermal and dermal retention of allantoin, six minute vs three minute pretreatment” value was “increased epidermal and dermal retention”. The “allantoin retention, three minute and six minute pretreatments” value in data set [3] (Round Four, FIG. 16B, about 125 μA) is reported as “comparable allantoin retention”. For the same compound, the “allantoin retention in the dermis” value in data set [3] (Round Four, FIG. 16B, about 250 μA, six minute pretreatment) is “stimulate additional allantoin retention in the dermis”. Also, the “allantoin retention in the epidermis” value in data set [3] (Round Four, FIG. 16B, about 250 μA, three minute pretreatment) is “stimulate allantoin retention in the epidermis”. The “difference in allantoin retention in the dermis” value in data set [3] (test #5 vs #6, NBS agent 0.1% allantoin, dermis) is reported as “not necessarily a substantial difference”. Also, the “increase in penetration of allantoin upon electrical pre-treatment vs non-electrical pretreated sample with PBS (flux chart)” value in data set [4] (FIG. 11C, test #3 vs #4) is recorded as “Greater than fivefold increase”. In addition, in data set [4] (FIG. 11C, test #9 and #11 vs #10), the “increase in skin allantoin delivery, electrical pre-treatment with conductive gel vs non-stimulated (flux chart)” value is reported as 5. Moreover, the “increase in penetration upon electrical pre-treatment vs non-electrical pretreatment sample with PBS (flux chart)” value in data set [4] (Round 2b (caffeine), FIG. 13C, test #1 vs #2) is recorded as “greater than fivefold increase”. Besides, in data set [4] (Round Four, FIG. 16C, all current levels, 0.5 h to 24 h after pretreatment), the “allantoin flux, six minute vs three minute electrical pretreatment” value is “higher allantoin flux”. Besides, the “allantoin flux at later time point” value in data set [4] (Round Three, FIG. 15C, 1-6 h) is listed as “substantially no flux; also recorded: little or substantially no flux”. Moreover, the “allantoin flux at initial time point” value in data set [4] (Round Three, FIG. 15C, all current levels, 30 m to 1 h following pretreatment) is reported as “increased allantoin flux”. Also, in data set [5] (FIG. 11A, test #9 and #11 vs #10, conductive gel containing 1.0% allantoin, Ept-36 min), the “delivery of allantoin after electrical pre-treatment using conductive gel vs non-electrical pretreatment” value is 5. Also, the “increase in transdermal penetration of allantoin” value in data set [5] (Round 1a, FIG. 9A, 1.0% allantoin in PBS after 36 min pretreatment with galvanic, CSW or PRPWM waveform, up to 375 μA) is “fivefold increase”. In addition, the “increase in penetration after electrical pre-treatment using PBS vs non-electrical pretreatment, caffeine as tracking marker” value in data set [5] (Round 2b, FIG. 13A, test #1 vs #2, Ept-36 min) is on record as “greater than fivefold increase”. The “transdermal penetration of allantoin, six minute vs three minute pretreatment” value in data set [5] (Round Four, FIG. 16A, NBS agent with 0.1% allantoin left on) was “increased transdermal penetration”. Besides, the “transdermal penetration of allantoin, six minute vs three minute pretreatment” value in data set [5] (Round Three, FIG. 15A, 1.0% allantoin in PBS) is “increased transdermal penetration”.
Take `Cn1c(=O)c2c(ncn2C)n(C)c1=O` [caffeine]: the “increase in penetration after electrical pre-treatment using PBS vs non-electrical pretreatment, caffeine as tracking marker” value in data set [5] is reported as “greater than fivefold increase”.
